Experimental data as given in PubChem BioAssay (NCI).
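Cultured in 96-well plates, cells were exposed to test compound for 48 hours across five concentrations. At the TGI there is no net growth.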

Legend:
Experiment in all cases: NCI tumour cell line growth inhibition, 48 h
CCRF-CEM leukemia = test system: CCRF-CEM leukemia
SF-539 CNS = test system: SF-539 CNS
KM12 colon = test system: KM12 colon
P388 leukemia = test system: P388 leukemia
HT29 colon = test system: HT29 colon
HCT-116 colon = test system: HCT-116 colon
HS 578T breast = test system: HS 578T breast
MOLT-4 leukemia = test system: MOLT-4 leukemia
BT-549 breast = test system: BT-549 breast
XF 498 CNS = test system: XF 498 CNS
KM20L2 colon = test system: KM20L2 colon
SN12K1 renal = test system: SN12K1 renal
SNB-19 CNS = test system: SNB-19 CNS
OVCAR-5 ovarian = test system: OVCAR-5 ovarian
RXF-631 renal = test system: RXF-631 renal
T-47D breast = test system: T-47D breast
K-562 leukemia = test system: K-562 leukemia
OVCAR-3 ovarian = test system: OVCAR-3 ovarian
A549 NSCLC = test system: A549 NSCLC
NCI/ADR-RES ovarian = test system: NCI/ADR-RES ovarian
HCT-15 colon = test system: HCT-15 colon
MALME-3M melanoma = test system: MALME-3M melanoma
OVCAR-8 ovarian = test system: OVCAR-8 ovarian
SK-MEL-28 melanoma = test system: SK-MEL-28 melanoma
LXFL 529 NSCLC = test system: LXFL 529 NSCLC
MDA-MB-435 = test system: MDA-MB-435
786-0 renal = test system: 786-0 renal
LOX IMVI melanoma = test system: LOX IMVI melanoma
A498 renal = test system: A498 renal
OVCAR-4 ovarian = test system: OVCAR-4 ovarian
EKVX NSCLC = test system: EKVX NSCLC
HOP-62 NSCLC = test system: HOP-62 NSCLC
SR leukemia = test system: SR leukemia
UO-31 renal = test system: UO-31 renal
MDA-N = test system: MDA-N
DMS 114 small cell lung = test system: DMS 114 small cell lung
RXF 393 renal = test system: RXF 393 renal
HCC-2998 colon = test system: HCC-2998 colon
CAKI-1 renal = test system: CAKI-1 renal
UACC-62 melanoma = test system: UACC-62 melanoma
P388/ADR leukemia = test system: P388/ADR leukemia
COLO 205 colon = test system: COLO 205 colon
ACHN renal = test system: ACHN renal
RPMI-8226 leukemia = test system: RPMI-8226 leukemia
DLD-1 colon = test system: DLD-1 colon
SF-268 CNS = test system: SF-268 CNS
DMS 273 small cell lung = test system: DMS 273 small cell lung
HOP-92 NSCLC = test system: HOP-92 NSCLC
NCI-H522 lung = test system: NCI-H522 lung
TK-10 renal = test system: TK-10 renal
SNB-78 CNS = test system: SNB-78 CNS
SNB-75 CNS = test system: SNB-75 CNS
M19-MEL melanoma = test system: M19-MEL melanoma
MCF7 breast = test system: MCF7 breast
SK-MEL-2 melanoma = test system: SK-MEL-2 melanoma
SF-295 CNS = test system: SF-295 CNS
HL-60(TB) leukemia = test system: HL-60(TB) leukemia
UACC-257 melanoma = test system: UACC-257 melanoma
NCI-H23 lung = test system: NCI-H23 lung
SK-OV-3 ovarian = test system: SK-OV-3 ovarian
M14 melanoma = test system: M14 melanoma
SK-MEL-5 melanoma = test system: SK-MEL-5 melanoma
U251 CNS = test system: U251 CNS
DU-145 prostate = test system: DU-145 prostate
SN12C renal = test system: SN12C renal
NCI-H226 lung = test system: NCI-H226 lung
IGROV1 ovarian = test system: IGROV1 ovarian
MDA-MB-231 breast = test system: MDA-MB-231 breast
SW-620 colon = test system: SW-620 colon
NCI-H460 lung = test system: NCI-H460 lung
HOP-18 NSCLC = test system: HOP-18 NSCLC
PC-3 prostate = test system: PC-3 prostate

Clc1ccc(C(c2ccccc2Cl)C(Cl)Cl)cc1 (configuration not stated)
TGI (CCRF-CEM leukemia): 47.1 µM | TGI (SF-539 CNS): 36.5 µM | TGI (KM12 colon): 37.1 µM | TGI (P388 leukemia): 38.2 µM | TGI (HT29 colon): 33.7 µM | TGI (HCT-116 colon): 31.4 µM | TGI (HS 578T breast): 37.1 µM | TGI (MOLT-4 leukemia): 41.1 µM | TGI (BT-549 breast): 30.2 µM | TGI (XF 498 CNS): 37.2 µM | TGI (KM20L2 colon): 33.8 µM | TGI (SN12K1 renal): 36.9 µM | TGI (SNB-19 CNS): 37.6 µM | TGI (OVCAR-5 ovarian): 33.9 µM | TGI (RXF-631 renal): 35.8 µM | TGI (T-47D breast): 33.3 µM | TGI (K-562 leukemia): 44.2 µM | TGI (OVCAR-3 ovarian): 34.3 µM | TGI (A549 NSCLC): 35.4 µM | TGI (NCI/ADR-RES ovarian): 37.1 µM | TGI (HCT-15 colon): 36.5 µM | TGI (MALME-3M melanoma): 33.5 µM | TGI (OVCAR-8 ovarian): 40 µM | TGI (SK-MEL-28 melanoma): 36.7 µM | TGI (LXFL 529 NSCLC): 38.2 µM | TGI (MDA-MB-435): 32 µM | TGI (786-0 renal): 36.7 µM | TGI (LOX IMVI melanoma): 40.2 µM | TGI (A498 renal): 38.6 µM | TGI (OVCAR-4 ovarian): 35.7 µM | TGI (EKVX NSCLC): 32.6 µM | TGI (HOP-62 NSCLC): 39.7 µM | TGI (SR leukemia): 46.5 µM | TGI (UO-31 renal): 37.4 µM | TGI (MDA-N): 35.1 µM | TGI (DMS 114 small cell lung): 36.7 µM | TGI (RXF 393 renal): 30.9 µM | TGI (HCC-2998 colon): 29.4 µM | TGI (CAKI-1 renal): 31.8 µM | TGI (UACC-62 melanoma): 34.4 µM | TGI (P388/ADR leukemia): 44.2 µM | TGI (COLO 205 colon): 38.9 µM | TGI (ACHN renal): 38.8 µM | TGI (RPMI-8226 leukemia): 49 µM | TGI (DLD-1 colon): 38.6 µM | TGI (SF-268 CNS): 37.6 µM | TGI (DMS 273 small cell lung): 36 µM | TGI (HOP-92 NSCLC): 32.1 µM | TGI (NCI-H522 lung): 34.3 µM | TGI (TK-10 renal): 37.5 µM | TGI (SNB-78 CNS): 41.5 µM | TGI (SNB-75 CNS): 35.1 µM | TGI (M19-MEL melanoma): 39 µM | TGI (MCF7 breast): 37.8 µM | TGI (SK-MEL-2 melanoma): 35.8 µM | TGI (SF-295 CNS): 35.6 µM | TGI (HL-60(TB) leukemia): 51.5 µM | TGI (UACC-257 melanoma): 37.2 µM | TGI (NCI-H23 lung): 37.7 µM | TGI (SK-OV-3 ovarian): 39.7 µM | TGI (M14 melanoma): 37.1 µM | TGI (SK-MEL-5 melanoma): 36.1 µM | TGI (U251 CNS): 36.8 µM | TGI (DU-145 prostate): 34.3 µM | TGI (SN12C renal): 37 µM | TGI (NCI-H226 lung): 39.1 µM | TGI (IGROV1 ovarian): 30.7 µM | TGI (MDA-MB-231 breast): 35.2 µM | TGI (SW-620 colon): 39.2 µM | TGI (NCI-H460 lung): 39.3 µM | TGI (HOP-18 NSCLC): 21.6 µM | TGI (PC-3 prostate): 35.5 µM
